Test results as given in article PMC4076210, “Discovery of Novel AKT Inhibitors with Enhanced Anti-Tumor Effects in Combination with the MEK Inhibitor” (PLoS ONE, 2014).
Read-outs that look alike come from different tables or passages of the source.

What was measured:
Format in all cases: biochemical
DDR2(h) = biological target: T1, DDR2(h) (Homo sapiens, UniProt Q16832); assay: Kinase panel
T1 construct: purchased Millipore KinaseProfiler
T1 sequence (Q16832 22-855): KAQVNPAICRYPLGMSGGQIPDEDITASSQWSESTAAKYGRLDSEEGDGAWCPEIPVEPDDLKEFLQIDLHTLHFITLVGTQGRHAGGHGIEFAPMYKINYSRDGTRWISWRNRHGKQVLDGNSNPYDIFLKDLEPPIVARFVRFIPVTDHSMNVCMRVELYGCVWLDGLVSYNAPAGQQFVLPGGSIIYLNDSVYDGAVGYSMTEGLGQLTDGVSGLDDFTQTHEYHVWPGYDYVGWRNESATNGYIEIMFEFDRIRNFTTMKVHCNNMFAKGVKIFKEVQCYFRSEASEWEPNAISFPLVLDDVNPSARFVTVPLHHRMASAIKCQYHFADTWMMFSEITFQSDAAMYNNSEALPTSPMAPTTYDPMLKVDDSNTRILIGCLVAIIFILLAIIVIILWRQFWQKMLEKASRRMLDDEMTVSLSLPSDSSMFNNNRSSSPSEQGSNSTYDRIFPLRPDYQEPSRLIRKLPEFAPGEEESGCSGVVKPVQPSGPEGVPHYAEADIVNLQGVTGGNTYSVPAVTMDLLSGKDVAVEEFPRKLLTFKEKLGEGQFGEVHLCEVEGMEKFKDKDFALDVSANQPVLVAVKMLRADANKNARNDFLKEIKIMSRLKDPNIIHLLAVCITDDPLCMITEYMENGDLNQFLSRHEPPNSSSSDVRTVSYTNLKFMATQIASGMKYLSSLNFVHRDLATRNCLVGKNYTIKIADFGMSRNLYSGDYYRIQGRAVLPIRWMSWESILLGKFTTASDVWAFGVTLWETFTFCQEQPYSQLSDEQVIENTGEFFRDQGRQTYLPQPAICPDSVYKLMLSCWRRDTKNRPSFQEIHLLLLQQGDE

PDGFRα(V561D)(h) = biological target: T2, PDGFRα(V561D)(h) (Homo sapiens, UniProt P16234, V561D); assay: Kinase panel
T2 construct: purchased Millipore KinaseProfiler
T2 sequence (P16234 24-1089 V561D): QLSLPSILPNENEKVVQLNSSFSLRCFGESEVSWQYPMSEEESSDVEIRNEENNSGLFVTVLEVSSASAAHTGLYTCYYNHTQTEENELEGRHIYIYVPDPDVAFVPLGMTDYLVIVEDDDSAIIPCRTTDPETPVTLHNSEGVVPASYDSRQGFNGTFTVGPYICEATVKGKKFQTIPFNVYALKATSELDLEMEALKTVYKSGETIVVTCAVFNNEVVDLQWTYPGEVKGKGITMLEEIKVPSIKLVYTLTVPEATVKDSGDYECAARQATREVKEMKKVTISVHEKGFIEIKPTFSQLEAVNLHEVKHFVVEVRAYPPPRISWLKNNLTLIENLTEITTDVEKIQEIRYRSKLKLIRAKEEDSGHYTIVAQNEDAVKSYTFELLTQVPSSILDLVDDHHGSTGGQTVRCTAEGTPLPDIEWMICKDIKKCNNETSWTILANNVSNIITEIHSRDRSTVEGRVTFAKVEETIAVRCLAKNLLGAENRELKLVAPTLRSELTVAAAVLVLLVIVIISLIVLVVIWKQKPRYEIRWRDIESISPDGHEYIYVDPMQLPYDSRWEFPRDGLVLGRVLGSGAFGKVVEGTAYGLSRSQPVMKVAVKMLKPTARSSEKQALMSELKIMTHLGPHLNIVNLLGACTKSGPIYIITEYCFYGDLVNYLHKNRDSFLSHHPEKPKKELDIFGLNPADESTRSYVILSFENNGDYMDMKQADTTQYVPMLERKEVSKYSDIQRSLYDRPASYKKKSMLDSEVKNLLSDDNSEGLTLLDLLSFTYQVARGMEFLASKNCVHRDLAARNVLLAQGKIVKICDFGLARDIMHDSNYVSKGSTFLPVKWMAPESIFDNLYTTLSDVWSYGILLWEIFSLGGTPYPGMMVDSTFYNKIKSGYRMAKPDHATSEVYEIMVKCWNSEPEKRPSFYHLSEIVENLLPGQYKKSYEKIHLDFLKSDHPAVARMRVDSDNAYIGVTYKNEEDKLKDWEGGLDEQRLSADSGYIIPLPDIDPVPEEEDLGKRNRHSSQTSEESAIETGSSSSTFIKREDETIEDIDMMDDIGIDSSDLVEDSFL

Yes(h) = biological target: T3, Yes(h) (Homo sapiens, UniProt P07947); assay: Kinase panel
T3 construct: purchased Millipore KinaseProfiler
T3 sequence (P07947 whole entry): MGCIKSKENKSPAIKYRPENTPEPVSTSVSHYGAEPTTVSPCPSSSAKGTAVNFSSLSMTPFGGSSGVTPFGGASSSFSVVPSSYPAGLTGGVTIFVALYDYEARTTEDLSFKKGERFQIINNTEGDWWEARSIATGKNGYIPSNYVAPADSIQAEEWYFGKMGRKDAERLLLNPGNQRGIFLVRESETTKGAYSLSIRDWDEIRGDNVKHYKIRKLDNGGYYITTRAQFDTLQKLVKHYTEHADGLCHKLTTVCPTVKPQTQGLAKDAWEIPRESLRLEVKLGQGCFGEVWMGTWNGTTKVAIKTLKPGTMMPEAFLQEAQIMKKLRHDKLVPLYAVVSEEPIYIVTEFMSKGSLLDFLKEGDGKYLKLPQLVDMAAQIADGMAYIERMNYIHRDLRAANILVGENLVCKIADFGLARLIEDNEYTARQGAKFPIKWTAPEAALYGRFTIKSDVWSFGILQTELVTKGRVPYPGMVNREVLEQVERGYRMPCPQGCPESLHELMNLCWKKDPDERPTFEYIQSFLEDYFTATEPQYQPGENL

P70S6K = P70S6K (Homo sapiens, UniProt P23443); assay: Kinase IC50 assay
Chain of P70S6K (P23443 whole entry): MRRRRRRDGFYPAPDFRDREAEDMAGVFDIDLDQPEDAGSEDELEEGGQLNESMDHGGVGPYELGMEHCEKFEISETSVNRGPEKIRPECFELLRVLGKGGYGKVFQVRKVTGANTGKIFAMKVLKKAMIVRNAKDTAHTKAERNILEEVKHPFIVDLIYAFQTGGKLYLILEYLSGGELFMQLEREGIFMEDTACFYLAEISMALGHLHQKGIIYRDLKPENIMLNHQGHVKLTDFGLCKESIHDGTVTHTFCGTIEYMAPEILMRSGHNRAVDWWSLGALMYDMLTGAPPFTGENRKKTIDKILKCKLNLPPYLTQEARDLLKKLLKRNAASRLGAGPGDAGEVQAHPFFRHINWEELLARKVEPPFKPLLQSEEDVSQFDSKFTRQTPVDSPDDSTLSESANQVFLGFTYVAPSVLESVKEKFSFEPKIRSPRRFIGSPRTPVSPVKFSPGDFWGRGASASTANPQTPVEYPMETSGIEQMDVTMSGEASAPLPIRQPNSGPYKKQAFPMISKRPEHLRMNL

GRK6(h) = biological target: T4, GRK6(h) (Homo sapiens, UniProt P43250); assay: Kinase panel
T4 construct: purchased Millipore KinaseProfiler
T4 sequence (P43250 whole entry): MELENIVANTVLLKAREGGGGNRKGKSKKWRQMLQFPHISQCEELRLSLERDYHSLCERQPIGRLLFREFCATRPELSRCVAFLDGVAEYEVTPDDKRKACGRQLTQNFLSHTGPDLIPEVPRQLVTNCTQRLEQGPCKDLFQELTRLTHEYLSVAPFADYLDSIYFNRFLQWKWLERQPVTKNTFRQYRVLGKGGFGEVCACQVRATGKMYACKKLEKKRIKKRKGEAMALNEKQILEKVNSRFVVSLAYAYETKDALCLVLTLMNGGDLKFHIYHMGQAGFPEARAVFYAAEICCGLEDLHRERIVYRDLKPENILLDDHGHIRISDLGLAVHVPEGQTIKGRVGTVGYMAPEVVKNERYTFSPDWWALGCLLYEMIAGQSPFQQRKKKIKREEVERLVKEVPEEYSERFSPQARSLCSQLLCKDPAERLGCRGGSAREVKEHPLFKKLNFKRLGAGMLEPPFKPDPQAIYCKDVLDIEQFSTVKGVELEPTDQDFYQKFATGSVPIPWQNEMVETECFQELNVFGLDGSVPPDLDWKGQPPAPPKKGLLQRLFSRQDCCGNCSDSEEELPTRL

Rse(h) = biological target: T5, Rse(h) (Homo sapiens, UniProt Q06418); assay: Kinase panel
T5 construct: purchased Millipore KinaseProfiler
T5 sequence (Q06418 41-890): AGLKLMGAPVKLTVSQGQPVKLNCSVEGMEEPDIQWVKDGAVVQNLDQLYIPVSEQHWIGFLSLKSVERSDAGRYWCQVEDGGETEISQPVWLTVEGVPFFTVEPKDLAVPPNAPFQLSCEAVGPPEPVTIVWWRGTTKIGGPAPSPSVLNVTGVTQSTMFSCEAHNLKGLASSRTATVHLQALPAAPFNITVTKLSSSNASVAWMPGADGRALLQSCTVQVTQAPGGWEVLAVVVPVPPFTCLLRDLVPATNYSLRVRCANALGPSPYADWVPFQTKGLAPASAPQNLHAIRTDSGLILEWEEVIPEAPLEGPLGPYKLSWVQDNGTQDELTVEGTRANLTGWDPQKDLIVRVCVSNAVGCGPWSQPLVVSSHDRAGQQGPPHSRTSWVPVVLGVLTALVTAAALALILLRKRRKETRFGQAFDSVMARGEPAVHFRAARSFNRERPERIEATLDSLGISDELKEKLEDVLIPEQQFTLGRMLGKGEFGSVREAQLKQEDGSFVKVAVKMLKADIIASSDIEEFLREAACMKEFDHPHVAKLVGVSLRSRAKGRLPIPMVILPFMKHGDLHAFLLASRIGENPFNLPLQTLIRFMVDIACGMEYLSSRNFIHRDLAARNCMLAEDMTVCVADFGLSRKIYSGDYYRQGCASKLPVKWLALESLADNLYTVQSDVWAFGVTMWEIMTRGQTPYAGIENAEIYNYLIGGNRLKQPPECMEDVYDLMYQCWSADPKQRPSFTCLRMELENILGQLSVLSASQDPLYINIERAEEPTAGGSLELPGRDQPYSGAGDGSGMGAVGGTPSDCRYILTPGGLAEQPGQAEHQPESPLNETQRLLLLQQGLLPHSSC

EGFR(T790M,L858R)(h) = biological target: T6, EGFR(T790M,L858R)(h) (Homo sapiens, UniProt P00533, L858R/T790M); assay: Kinase panel
T6 construct: purchased Millipore KinaseProfiler
T6 sequence (P00533 25-1210 T790M/L858R): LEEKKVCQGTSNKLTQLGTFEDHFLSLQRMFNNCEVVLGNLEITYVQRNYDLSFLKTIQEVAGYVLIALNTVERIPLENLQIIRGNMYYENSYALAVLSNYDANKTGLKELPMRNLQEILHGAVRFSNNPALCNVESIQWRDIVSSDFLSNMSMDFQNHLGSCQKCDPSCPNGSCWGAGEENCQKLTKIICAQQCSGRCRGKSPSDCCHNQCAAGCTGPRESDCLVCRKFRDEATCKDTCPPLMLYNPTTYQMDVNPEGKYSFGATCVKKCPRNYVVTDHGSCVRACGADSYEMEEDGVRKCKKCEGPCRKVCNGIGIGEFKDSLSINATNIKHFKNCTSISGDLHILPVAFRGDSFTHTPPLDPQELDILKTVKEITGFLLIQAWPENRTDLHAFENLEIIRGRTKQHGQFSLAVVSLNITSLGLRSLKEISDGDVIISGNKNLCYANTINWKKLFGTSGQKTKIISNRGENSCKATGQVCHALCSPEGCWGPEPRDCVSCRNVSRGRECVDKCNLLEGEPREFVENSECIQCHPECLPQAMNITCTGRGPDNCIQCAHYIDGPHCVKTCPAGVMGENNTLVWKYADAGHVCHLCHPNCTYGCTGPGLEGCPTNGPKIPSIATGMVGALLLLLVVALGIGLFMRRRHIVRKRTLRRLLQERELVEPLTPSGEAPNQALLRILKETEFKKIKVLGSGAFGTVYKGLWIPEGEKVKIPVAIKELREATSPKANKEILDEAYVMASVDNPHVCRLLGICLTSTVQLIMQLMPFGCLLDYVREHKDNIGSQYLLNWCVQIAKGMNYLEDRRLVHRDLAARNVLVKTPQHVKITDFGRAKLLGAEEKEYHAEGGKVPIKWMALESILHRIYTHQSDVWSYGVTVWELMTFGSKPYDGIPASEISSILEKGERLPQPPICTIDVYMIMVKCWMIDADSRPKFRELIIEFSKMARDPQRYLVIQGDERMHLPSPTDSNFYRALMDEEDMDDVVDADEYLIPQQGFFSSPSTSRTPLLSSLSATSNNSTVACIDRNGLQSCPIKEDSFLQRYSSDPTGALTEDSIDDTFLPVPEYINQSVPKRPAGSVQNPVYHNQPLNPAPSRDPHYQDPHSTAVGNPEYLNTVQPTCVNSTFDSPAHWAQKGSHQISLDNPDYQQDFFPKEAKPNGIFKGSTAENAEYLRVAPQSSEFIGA

STK33(h) = biological target: T7, STK33(h) (Homo sapiens, UniProt Q9BYT3); assay: Kinase panel
T7 construct: purchased Millipore KinaseProfiler
T7 sequence (Q9BYT3 whole entry): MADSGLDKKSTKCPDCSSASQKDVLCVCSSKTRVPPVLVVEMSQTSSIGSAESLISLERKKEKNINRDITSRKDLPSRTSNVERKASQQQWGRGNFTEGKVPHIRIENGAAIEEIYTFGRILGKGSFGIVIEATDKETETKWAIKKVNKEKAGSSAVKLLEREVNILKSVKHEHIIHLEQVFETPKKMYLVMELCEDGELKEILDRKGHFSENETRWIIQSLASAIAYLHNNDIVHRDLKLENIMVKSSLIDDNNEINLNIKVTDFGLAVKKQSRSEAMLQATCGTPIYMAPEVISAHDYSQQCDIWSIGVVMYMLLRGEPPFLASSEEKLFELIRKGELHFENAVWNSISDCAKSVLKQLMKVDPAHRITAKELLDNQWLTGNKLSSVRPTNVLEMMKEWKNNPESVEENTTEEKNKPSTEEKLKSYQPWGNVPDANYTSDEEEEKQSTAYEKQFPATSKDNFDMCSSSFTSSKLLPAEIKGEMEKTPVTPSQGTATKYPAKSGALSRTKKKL

Itk(h) = biological target: T8, Itk(h) (Homo sapiens, UniProt Q08881); assay: Kinase panel
T8 construct: purchased Millipore KinaseProfiler
T8 sequence (Q08881 1-620): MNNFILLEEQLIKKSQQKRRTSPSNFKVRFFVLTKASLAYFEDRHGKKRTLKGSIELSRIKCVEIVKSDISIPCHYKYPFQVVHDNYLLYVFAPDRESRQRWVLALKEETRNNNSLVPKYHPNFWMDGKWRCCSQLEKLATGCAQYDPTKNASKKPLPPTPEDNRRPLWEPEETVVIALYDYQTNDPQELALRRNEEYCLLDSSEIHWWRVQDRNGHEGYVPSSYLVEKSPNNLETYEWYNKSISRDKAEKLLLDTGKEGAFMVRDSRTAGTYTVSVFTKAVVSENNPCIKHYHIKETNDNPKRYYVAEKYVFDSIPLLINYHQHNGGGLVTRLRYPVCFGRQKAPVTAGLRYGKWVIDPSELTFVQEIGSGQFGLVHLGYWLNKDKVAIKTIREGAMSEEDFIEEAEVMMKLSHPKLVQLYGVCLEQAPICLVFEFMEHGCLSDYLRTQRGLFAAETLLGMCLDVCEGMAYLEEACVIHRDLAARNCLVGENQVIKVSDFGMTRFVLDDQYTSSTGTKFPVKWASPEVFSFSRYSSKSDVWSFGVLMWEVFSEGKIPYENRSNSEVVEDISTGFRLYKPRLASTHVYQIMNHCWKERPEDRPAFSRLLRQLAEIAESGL

## Cn1ncc(Cl)c1-c1cc(C(=O)N[C@H](CN)Cc2cccc(F)c2)sc1Cl [GSK2110183]
DDR2(h)
  inhibition at 0.5 µM: 1%
  inhibition at 10 µM: 6%
PDGFRα(V561D)(h)
  inhibition at 0.5 µM: 2%
  inhibition at 10 µM: 26%
Yes(h)
  inhibition at 0.5 µM: 2%
  inhibition at 10 µM: 38%
P70S6K
  IC50: 251 nM
GRK6(h)
  inhibition at 0.5 µM: -8%
  inhibition at 10 µM: 10%
Rse(h)
  inhibition at 0.5 µM: 6%
  inhibition at 10 µM: 51%
EGFR(T790M,L858R)(h)
  inhibition at 0.5 µM: -32%
  inhibition at 10 µM: -3%
STK33(h)
  inhibition at 0.5 µM: 56%
  inhibition at 10 µM: 94%
Itk(h)
  inhibition at 0.5 µM: 0%
  inhibition at 10 µM: 2%

## Cn1ncc(Cl)c1-c1cc(C(=O)N[C@H](CN)Cc2ccc(F)c(F)c2)oc1Cl [GSK2141795]
DDR2(h); 0.5 µM, read-out: % Inhibition
  inhibition at 0.5 µM: 3%
DDR2(h); 10 µM, read-out: % Inhibition
  inhibition at 10 µM: 12%
PDGFRα(V561D)(h); 0.5 µM, read-out: % Inhibition
  inhibition at 0.5 µM: -5%
PDGFRα(V561D)(h); 10 µM, read-out: % Inhibition
  inhibition at 10 µM: 14%
Yes(h); 0.5 µM, read-out: % Inhibition
  inhibition at 0.5 µM: -4%
Yes(h); 10 µM, read-out: % Inhibition
  inhibition at 10 µM: 83%
P70S6K
  IC50: 50 nM
GRK6(h); 0.5 µM, read-out: % Inhibition
  inhibition at 0.5 µM: -16%
GRK6(h); 10 µM, read-out: % Inhibition
  inhibition at 10 µM: 26%
Rse(h); 0.5 µM, read-out: % Inhibition
  inhibition at 0.5 µM: 2%
Rse(h); 10 µM, read-out: % Inhibition
  inhibition at 10 µM: 33%
EGFR(T790M,L858R)(h); 0.5 µM, read-out: % Inhibition
  inhibition at 0.5 µM: -7%
EGFR(T790M,L858R)(h); 10 µM, read-out: % Inhibition
  inhibition at 10 µM: 18%
STK33(h); 0.5 µM, read-out: % Inhibition
  inhibition at 0.5 µM: 82%
STK33(h); 10 µM, read-out: % Inhibition
  inhibition at 10 µM: 77%
Itk(h); 0.5 µM, read-out: % Inhibition
  inhibition at 0.5 µM: -15%
Itk(h); 10 µM, read-out: % Inhibition
  inhibition at 10 µM: -7%
